Source: patent US20070053831A1, “Methods for binding agents to b-amyloid plaques” (priority 2003, published 2007)

Legend:
β-amyloid (1-40) fibrils = biological target: T1, β-amyloid (1-40) fibrils (Homo sapiens, UniProt P05067); test: In vitro competition assay with [18F]FDDNP on synthetic β-amyloid (1-40) fibrils (vacuum filtration); format: binding; conditions: for Ki: synthetic β-amyloid (1-40) fibrils, 1 h, PBS pH 7.4, ±SD, read-out: Ki (decrease in the binding of [18F]FDDNP); for dose dependent decrease in the specific binding of [18F]FDDNP: 0.1 pM to 83 μM of nonradioactive agent
T1 construct: β-amyloid (1-40) (Biosource, Camarillo, Calif.) fibrils were prepared; purchased Biosource, Camarillo, Calif; host or cells: synthetic peptide
Experimental: Potential therapeutic agents were evaluated to determine their ability to bind to β-amyloid fibrils. • Amyloid (1-40) fibril formation. β-amyloid (1-40) (Biosource, Camarillo, Calif.) fibrils were prepared. 0.5 mg of β-amyloid (1-40) was dissolved in 1 mL PBS, pH 7.4 and mixed with a magnetic stir bar for 3 days at 37° C. resulting in a visibly cloudy solution. Fibrils were used immediately after their production was confirmed. The production of 13-amyloid fibrils was confirmed by imaging with a Jeol 100CX transmission electron microscope (Jeol, Peabody, Mass.). A 5 μL drop from a fibril solution was allowed to settle for 30 s on a treated copper grid before being washed away with a drop of 2% uranyl acetate solution. Finally, an additional drop of 2% uranyl acetate was added to the grid to negatively stain the fibrils. Fibrils were used immediately after their production was confirmed. Additional tests for fibril formation using Congo red (CR, Sigma) and Thioflavine T (TT, Sigma) were performed, as well. The absence of fibrils in the filtrate in the in vitro competition assays described below was determined by the same tests using CR. In vitro competition assays with [^18[…] against NSAIDs and charge amyloid dyes. Solutions of nonradioactive agents, namely (S)-naproxen (Sigma), (R)-ibuprofen (BIOMOL, Plymouth Meeting, Pa.), (S)-ibuprofen (Sigma), diclofenac (Sigma), CR and TT, were prepared fresh for each radioactive competition assay. APFF glass fiber filters (0.7 μm particle retention; Millipore, Bedford, Mass.) were used in a 1225 sampling manifold (Millipore) that was modified with stainless steel support screens (Millipore) and glass sample chambers. Vacuum filtration involved 0.865 μg/mL of in vitro fibrils of synthetic β-amyloid (1-40) and 37 MBq/mL of [^18[…] incubated for 1 h in PBS, pH 7.4 (1% ethanol) with various concentrations of the nonradioactive agents with the range of 0.1 pM to 83 μM. Each filter was then washed twice with 3 ml of PBS, pH 7.4. The radioactivity retained by the filters was measured and decay-corrected to a common reference time with a Packard Cobra II Auto-Gamma gamma counter (Packard, Meriden, Conn.). […] All competition assays were performed in triplicate. Competition results were analyzed and then Ki values calculated using the Ligand Binding Module for SigmaPlot 2001 (SPSS, Chicago, Ill.).

senile plaques = test: Digital autoradiography with [18F]FDDNP of AD brain specimens pretreated with nonradioactive agents; format: binding, human
Experimental: Brain specimens from a postmortem-diagnosed definite AD patient were treated. Briefly, formalin-treated, cryoprotected brain specimens were sectioned 70 μm thick coronally mounted on gelatine-coated glass slides, allowed to dry, and were defatted for 40 min in xylene prior to rinsing of the tissue with ethanol. Finally, lipofuscin autofluorescence in some brain specimens was quenched prior to staining using 10 mM CuCl2 in 50 mM ammonium acetate buffer, pH 5. The quenching determined the origin of lipofuscin fluorescence in brain specimens. […] Pretreated and cryosections with no competitor were incubated for 25 min at room temperature with […] of [^18[…] dissolved in 10 mL of 1% ethanol in 0.9% saline (w/v) per cryosection. Following incubation, the sections were optimally washed with water (30 sec); 60% 2-methyl-2-butanol (3 min; Sigma) agitated at 40 RPMs on a Junior Orbit Shaker (Lab-Line Instruments, Melrose Park, Ill.) for differentiation (Bancroft and Stevens, 1990); and then water (30 sec). The sections were dried on a warm hot plate with a steady stream of warm air, exposed to β^+-sensitive phosphor plates for 40 min Fuji Film Medical Systems USA, Stamford, Conn.), and scanned with a FUJI BAS 5000 Phosphorimager (Fuji) at a resolution of 25 μm, as described previously ([…] et al., 2001a). […] FIG. 2Q) in the autoradiograms. Autoradiography was carried out at least in triplicate for each competitor. Statistical analysis of the autoradiograms involved one-way ANOVA with Dunnett's post test using Prism 3.02 (GraphPad, San Diego, Calif.) to compare the differences in the ratio of gray matter-to-white matter (FIG. 2Q) radioactivity of [^18]FDDNP in autoradiograms pretreated with the nonradioactive agents and without pretreatment. Unpaired t-tests were performed to compare the difference of measured [^18[…] radioactivity per area of tissue (Bq/mm^2) in the gray and white matter of each autoradiogram. The same brain specimens used for autoradiography were observed using fluorescence microscopy. Tissues were mounted with Vectashield (Vector, Burlingame, Calif.) and observed with a Nikon Labophot fluorescence microscope (Nikon USA, Melville, N.Y.) with a FITC filter set.

[1] = test system: amyloid plaques and tangles; test: DDNP fluorescence labeling of brain tissue sections in vitro; parameters: species or system human
Experimental: (§1) A 2.1 mg/mL DDNP stock solution was prepared, which was adjusted to 8 mM in 100% ethanol. A DDNP working solution was prepared by diluting the stock solution with distilled water in a ratio of 1:100-1000 (stock solution:distilled water).
β-amyloid 250 μM (1.25 mg/mL in distilled water) was aggregated at 37° C. for 48 hours. 5 μL were smeared on slides, air-dried and then rehydrated with distilled water. Alternatively, Aβ-positive brain tissue sections were rehydrated with distilled water. DDNP working solution was applied to each slide for 30 minutes at room temperature. The slides were washed three times for five minutes with distilled water. The slides were coverslipped with fluorescent protectant mounding media (Vectashield™, available Vector Labs., Burlingame, Calif.) and observed under a fluorescence microscope with a thioflavin S or FITC filter.

[2] = biological target: T2, β-amyloid 1-40 injected into rat cortex (Homo sapiens, UniProt P05067); test: DDNP labeling of β-amyloid injected into rat brain in vivo; conditions: rats, FIGS. 2A to 2E
T2 construct: unilateral stereotaxic injection of 3 μg of aggregated β-amyloid 1-40 into rat cortex; host or cells: exogenous peptide fibrils injected into rat brain
Experimental: β-amyloid 250 μM (1.25 mg/mL in distilled water) was aggregated at 37° C. for 48 hours to produce fibrils confirmed by smears. Three rats were anesthetized. 3 μL of a solution of Aβ fibrils (1.25 μg/μL) were injected unilaterally into the cortex of each rat (Bregma 0, AP-4.1 mm, ML+2.0 mm, DV-3.1 mm). Then 3 μL of phosphate buffered saline (PBS) were injected into the contralateral side of each rat brain as a vehicle control. After injection, the needle remained for 5 minutes to prevent reflux, and then the cranial hole was sealed with bone wax. Eight days after β-amyloid injection into the rat brains, the rats were injected with 10 microliters of DDNP working solution (320 micromolar) prepared by diluting DDNP stock solution into 1.5% BSA (bovine serum albumin) in phosphate buffered saline, pH 7.2).
After one hour, the rats were cardiac perfused with PLP fixative (4% paraformaldehyde, 1% lysin in 0.05 M phosphate buffer, pH 7.4). Additional immersion fixation of rat brain was at 4° C. overnight with PLP fixative. The rat brains were washed with PBS, saturated in 10 and 20% sucrose, and snap frozen in chilled isopentane (−70° C.) with liquid nitrogen. The brains were cryostat sectioned at […] around the needle-track and directly coverslipped with glycerol and fluorescence protectant (Vectashield™).

[3] = test system: neurofibrillary tangles, amyloid peptides, and diffuse amyloid; test: In vitro fluorescence labeling of Alzheimer's disease brain specimens with DDNP and [F-18]FDDNP; parameters: species or system human; conditions: all Alzheimer's disease brain specimens
[4] = Storage of DDNP stock solution; format: physicochemical; conditions: 8 mM in 100% ethanol, freezer; used at 1/100 to 1/1,000 dilutions
Experimental: as §1

[5] = test system: β-amyloid plaques and neurofibrillary tangles; test: PET with [F-18]FDDNP in patients; format: in vivo, human
Experimental: A patient was placed in a tomograph to obtain brain dynamic PET images. 8.0 mCi of 2-(1.1-dicyanopropen-2-yl)-6-(2-[^18F]-fluoroethyl)-methylamino)-naphthalene ([F18]FDDNP) (specific activity: 5-12 Ci/micromol; mass: ˜1 nanomol), prepared as described in Example 1(f), were injected intravenously into the arm of the patient. Dynamic acquisition data of brain images were recorded simultaneously in forty-seven brain planes for two hours.
Labeling and detection of human β-amyloid plaques and neurofibrillary tangles in vivo were conducted using the following procedures. Ten human subjects, seven Alzheimer's diseased patients (ages 71 to 80) and three control patients (ages 62 to 82) were studied. The patients were positioned supine in an EXACT HR+962 tomograph (Siemens-CTI, Knoxville, Tenn.) with the imaging plane parallel to the orbito-meatal line. Venous catheterization was performed, and then [F-18]FDDNP (5-10 mCi) in human serum albumin (25%) was administered as a bolus via the venous catheter. Sequential emission scans were obtained beginning immediately after [F-18]FDDNP administration using the following scan sequence: six 30 second scans, four 3 minute scans, five 10 minute scans, and three 20 minute scans. Rapid venous blood sampling was performed via the indwelling catheter in two subjects for input function determination and plasma metabolite analysis.
The residence time shown is in reference to that in the pons, an area known to have limited involvement in Alzheimer's disease pathology. The residence time was calculated from the clearance rates of the tracer in affected regions of interest (ROI) and in the pons as: Residence time=[1/clearance rate for affected ROI]−[1/clearance rate for pons] Separate ROIs were defined in entorhinal cortex, hippocampus, lateral temporal cortex and pons. The region with the slowest clearance rate was used as the affected ROI in the calculation of the residence time shown in FIG. 4.

[6] = AD brain specimens pretreated with 40 μM agent for 60 min
[7] = AD brain specimens pretreated with 100 nM agent for 60 min
[8] = cortex of the brain of an Alzheimer's disease patient, FIG. 1B

T1 sequence (P05067 672-711 limits assumed): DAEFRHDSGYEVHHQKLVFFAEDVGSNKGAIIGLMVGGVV
T2 sequence (P05067 672-711 limits assumed): as above

SMILES: CN(C)/C=C/C(=C(C#N)C#N)c1ccc2cc(N(C)C)ccc2c1
- melting point: 213 to 215 °C

SMILES: CN(C)c1ccc2cc(-c3ccnc(Cl)c3C#N)ccc2c1
- melting point: 198 to 200 °C

SMILES: CN(C)c1ccc2cc(-c3ccnc(N)c3C#N)ccc2c1.O
- melting point: 256 to 257 °C

SMILES: COc1nccc(-c2ccc3cc(N(C)C)ccc3c2)c1C#N
- melting point: 150 to 151 °C

SMILES: CN(C)c1ccc2cc(C(/C=C\NCCO)=C(C#N)C#N)ccc2c1
- melting point: 168 to 170 °C

SMILES: CN(C)c1ccc2cc(-c3ccnc(SCCO)c3C#N)ccc2c1
- melting point: 210 to 212 °C

SMILES: CN(C)c1ccc2cc(-c3ccn4ccnc4c3C#N)ccc2c1
- melting point: 268 to 269 °C

SMILES: CC(C)Cc1ccc([C@@H](C)C(=O)O)cc1 [(R)-ibuprofen]
- Ki (β-amyloid (1-40) fibrils): 44.4 ± 17.4 µM
- specific binding of [18F]FDDNP to regions of gray matter with senile plaques (senile plaques; [6]): significantly reduced

SMILES: CC(C)Cc1ccc([C@H](C)C(=O)O)cc1 [(S)-ibuprofen]
- Ki (β-amyloid (1-40) fibrils): 11.3 ± 5.2 µM
- specific binding of [18F]FDDNP to regions of gray matter with senile plaques (senile plaques; [6]): significantly reduced

SMILES: COc1ccc2cc([C@H](C)C(=O)O)ccc2c1 [(S)-naproxen]
- Ki (β-amyloid (1-40) fibrils): 0.0057 ± 0.00131 µM
- specific binding of [18F]FDDNP to regions of gray matter with senile plaques (senile plaques; [7]): significantly reduced

SMILES: Nc1c(/N=N/c2ccc(-c3ccc(/N=N/c4cc(S(=O)(=O)O)c5ccccc5c4N)cc3)cc2)cc(S(=O)(=O)O)c2ccccc12 [CR, Congo red]
- dose dependent decrease in the specific binding of [18F]FDDNP (β-amyloid (1-40) fibrils): did not exhibit a dose dependent decrease
- specific binding of [18F]FDDNP to regions of gray matter with senile plaques (senile plaques; [6]): minimal effect

SMILES: CC(=C(C#N)C#N)c1ccc2cc(N(C)C)ccc2c1 [DDNP, 2-(1,1-dicyanopropen-2-yl)-6-dimethylaminonaphthalene]
- labeling of plaques [1, 8]: strong
- labeling of tangles [1, 8]: weak
- labeling of amyloid deposits in cryostat and paraffin sections of AD brain tissue ([1]; fluorescence microscopy): readily labeled amyloid deposits
- passage of the blood brain barrier [2]: passes the blood brain barrier
- visualization of neurofibrillary tangles, amyloid peptides, and diffuse amyloid [3]: excellent visualization
- stability of stock solution [4]: can be kept in the freezer for six months and still produce acceptable results
- melting point: 154.5 to 155 °C

SMILES: O=C(O)Cc1ccccc1Nc1c(Cl)cccc1Cl [Diclofenac, diclofenac]
- dose dependent decrease in the specific binding of [18F]FDDNP (β-amyloid (1-40) fibrils): did not exhibit a dose dependent decrease
- specific binding of [18F]FDDNP to regions of gray matter with senile plaques (senile plaques; [6]): minimal effect

SMILES: CC(=C(C#N)C#N)c1ccc2cc(N(C)CCF)ccc2c1 [FDDNP]
- specific binding of [18F]FDDNP to regions of gray matter with senile plaques (senile plaques; [7]): significantly reduced

SMILES: Cc1ccc2c(c1)sc(-c1ccc(N(C)C)cc1)[n+]2C.[Cl-] [TT, Thioflavine T]
- dose dependent decrease in the specific binding of [18F]FDDNP (β-amyloid (1-40) fibrils): did not exhibit a dose dependent decrease
- specific binding of [18F]FDDNP to regions of gray matter with senile plaques (senile plaques; [6]): minimal effect

SMILES: CC(=C(C#N)C#N)c1ccc2cc(N(C)CC[18F])ccc2c1 [[F-18]FDDNP]
- estimated residence time (in reference to pons) ([5]; Alzheimer's diseased patients versus control patients, FIG. 4): different from values in control patients
- regional clearance from brain ([5]; brain areas known to accumulate β-amyloid plaques and neurofibrillary tangles): slower clearance
- crossing of the blood brain barrier ([5]; human, intravenous injection): crosses the blood brain barrier readily in proportion to blood flow
- visualization of neurofibrillary tangles, amyloid peptides, and diffuse amyloid [3]: excellent visualization
